From PMC6005765 (Bioorganic & medicinal chemistry letters, 2018) come the findings set out here.

In assay [1] the target is μ opioid receptor (MOP) (Homo sapiens, UniProt P35372). The assay is classed as binding. Conditions: for Selectivity IC50δ/IC50μ: ratio DOP IC50 / MOP IC50.
Assay [2] has as its target δ opioid receptor (DOP) (Homo sapiens, UniProt P41143). It counts as binding.
Assay [3] has as its system guinea pig ileum (GPI), MOP. The following applies: read-out: IC50 (GPI); agonist potency.
For assay [4], the target named is MOP (Homo sapiens, UniProt P35372). Nature of the assay: EPAC cAMP BRET-based biosensor assay, MOP. It counts as cell-based.
Assay [5] concerns the target DOP (Homo sapiens, UniProt P41143). The assay can be described thus: EPAC cAMP BRET-based biosensor assay, DOP. The assay is classed as cell-based. (BRET reads energy transfer from a luciferase to a nearby fluorophore.)
Assay [6] deals with rats. The assay can be described thus: Tail-flick test on rats after intrathecal administration. The assay is classed as in vivo, rat.
For assay [7], the target named is δ opioid receptor (UniProt P41143).
Assay [8] deals with μ opioid receptor (UniProt P35372).
Assay [9] shares this target. The source holds these as a separate data set.
Assay [10] concerns the target δ opioid receptor (UniProt P41143). Nature of the assay: radioligand binding.
Assay [11] has as its target μ opioid receptor (UniProt P35372). Nature of the assay: radioligand binding.
Assay [12] has as its target δ opioid receptor (UniProt P41143). The source holds these as a separate data set.

Starred links: 1 amine or outer side, 2 acyl side, 3 side chain; linkers in the order of their positions; H or OH if unused. Non-standard residues stand in square brackets, D forms with d. Residues, ends and D or L forms follow the SMILES beside them. No end group written: not given here. Phe(2-(3-thienyl)) = O=C([C@H](Cc1ccccc1-c1ccsc1)N[*:1])[*:2]; Dmt = Cc1cc(O)cc(C)c1C[C@H](N)C(=O)O

Sequence of μ opioid receptor (MOP) (P35372 whole entry, species assumed): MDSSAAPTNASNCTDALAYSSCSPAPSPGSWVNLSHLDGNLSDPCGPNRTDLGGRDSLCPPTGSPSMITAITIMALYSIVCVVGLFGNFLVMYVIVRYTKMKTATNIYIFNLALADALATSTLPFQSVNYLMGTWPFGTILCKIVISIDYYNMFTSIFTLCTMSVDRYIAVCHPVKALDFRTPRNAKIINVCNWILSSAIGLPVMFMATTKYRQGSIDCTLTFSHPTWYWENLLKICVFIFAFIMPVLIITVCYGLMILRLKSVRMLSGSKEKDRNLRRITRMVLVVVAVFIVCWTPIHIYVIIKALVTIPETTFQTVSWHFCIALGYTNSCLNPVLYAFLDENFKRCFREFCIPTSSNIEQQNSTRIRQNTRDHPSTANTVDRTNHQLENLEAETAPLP
Sequence of MOP (P35372 whole entry): as the sequence (P35372 whole entry, species assumed) above

As usually defined, the IC50 is the concentration at which inhibition is half-maximal. The EC50 is the concentration at which the effect is half-maximal. Low readings indicate greater potency, high ones weaker potency. For the molecule `Cc1cc(O)cc(C)c1C[C@H](N)C(=O)N[C@H](C)C(=O)N[C@@H](Cc1ccccc1)C(=O)NCC(N)=O` [Compound 20, Dmt-D-Ala-Phe-Gly-NH2] (H-[Dmt][dA]FG-NH2), in [1], the “Fold increase in MOP affinity compared to DAMGO” value is given as 10 fold, half-maximal inhibition (IC50) was put at 0.14 ± 0.05 nM and the “Selectivity IC50δ/IC50μ” value came out at 161. In [2], this molecule showed an IC50 of 22.6 ± 4.6 nM. Moreover, the IC50 in assay [3] turned out to be 1.5 ± 0.12 nM. In addition, it took 0.012 ± 0.0007 nM to reach a half-maximal effect in [4] (EC50). This molecule also displayed an EC50 in assay [5] of 2.4 ± 1 nM. Also, in assay [6], the “Duration of analgesic action on thermal nociception” value is “exceeding 60 min” and the “Effectiveness in reversing nociceptive behavior relative to DAMGO” value is on record as 10 times.
Turning to `Cc1cc(O)cc(C)c1C[C@H](N)C(=O)N[C@H](CCCNC(=N)N)C(=O)N[C@@H](Cc1ccccc1)C(=O)NCC(N)=O` [Compound 19, Dmt-D-Arg-Phe-Gly-NH2] (H-[Dmt][dR]FG-NH2), in assay [1], the “Fold increase in MOP affinity compared to DAMGO” value is on record as 10 fold, the IC50 is 0.1 ± 0.06 nM and the “Selectivity IC50δ/IC50μ” value stood at 140. Besides, in assay [2], the IC50 was 14 ± 2.7 nM. The IC50 in [3] is 2.26 ± 0.37 nM. In [4], this molecule came in with an EC50 of 0.008 ± 0.002 nM. This molecule gave an EC50 in assay [5] of 1.13 ± 0.2 nM. For the same molecule, in assay [6], the “Duration of analgesic action on thermal nociception” value is given as “exceeding 60 min” and the “Effectiveness in reversing nociceptive behavior relative to DAMGO” value is recorded as 10 times.

B1: Dmt-D-Ala-Phe(2-(3-thienyl))-Gly-NH2 (peptide)
peptide: [Dmt][dA][Phe(2-(3-thienyl))]G-NH2
modifications: N-terminus assumed
SMILES: Cc1cc(O)cc(C)c1C[C@H](N)C(=O)N[C@H](C)C(=O)N[C@@H](Cc1ccccc1-c1ccsc1)C(=O)NCC(N)=O
For B1, the IC50 in the mouse vas deferens (MVD) assay in [7] was determined as 2.16 nM. Besides, the IC50 in the guinea pig ileum (GPI) assay in assay [8] was 1.27 nM. The EPAC MOP EC50 (EPAC cAMP BRET-based biosensor assay) in [9] worked out at 34.8 nM. Besides, the values for the IC50 in assay [10] and in [11] were 687 nM and 240 nM, respectively.

B2: Dmt-D-Ala-Phe-Gly-NH2 (peptide)
peptide: [Dmt][dA]FG-NH2
modifications: N-terminus assumed
SMILES: Cc1cc(O)cc(C)c1C[C@H](N)C(=O)N[C@H](C)C(=O)N[C@@H](Cc1ccccc1)C(=O)NCC(N)=O
B2: the IC50 in the mouse vas deferens (MVD) assay in assay [7] worked out at 1.15 nM. In [8], this molecule returned an IC50 in the guinea pig ileum (GPI) assay of 1.5 nM. Besides, in assay [12], the EPAC DOP EC50 (EPAC cAMP BRET-based biosensor assay) is 2.4 nM. This molecule also showed an EPAC MOP EC50 (EPAC cAMP BRET-based biosensor assay) in [9] of 0.012 nM.
